What all share (format): cell-based
One experiment deals with Phospho-Rb (Ser807/811). Put plainly: Phospho-Retinoblastoma (pRB) Cellular Assay. The settings on record: Homo sapiens, OVCAR-3, NIH OVCAR3 cells, 24 hours; for IC50: concentration giving 50% response; for Emax: maximum response, reference compound at 10 μM = 100%, read-out: pRB Ymax. Here is the method:
Phospho-Retinoblastoma (pRB) Cellular Assay
NIH OVCAR3 (HTB-161, American Type Culture Collection, Manassas VA) cells were grown up to passage 10 in culture media made up of RPMI (11835-030 Gibco, Grand Island NY), 20% HI FBS (16140-071, Gibco, Grand Island NY), and 0.01 mg/mL insulin from bovine pancreas (I6634-1G, Sigma Aldrich, St. Louis, MO).
The cells were seeded in a 384-well CulturPlate (6007688, Perkin Elmer, Waltham MA) at a density of 10,000 cells/well in 20 μL of the above culture media and incubated overnight at 37° C. and 5% CO2.
The next day, cells were treated using an Echo 650 (Beckman Coulter, Indianapolis IN) acoustic dispenser with 40 nL of compounds dissolved in DMSO at the appropriate serial dilutions (10 mM to […]). Cells were then incubated for 24 hours as above.
After 24 hours elapsed, media was removed from each well and shortly after 20 μL of the following mix was added: 12 μL deionized water, 4 μL lysis buffer, 4 μL of reconstituted antibody mix, and 1:100 phosphatase inhibitor. These components belong to the Phospho-Rb (Ser807/811) Cellular Kit (64RBS807PEY, Perkin Elmer, Waltham MA).
Plates were sealed and incubated away from light at room temperature for at least 4 hours before reading them on an EnVision plate reader (Perkin Elmer, Waltham MA) according to the kit manufacturer's protocol. The reference compound, N-(5-{[(5-tert-butyl-1,3-oxazol-2-yl)methyl]sulfanyl}-1,3-thiazol-2-yl)piperidine-4-carboxamide, at 10 μM was used to define 100% response. Assay results for each compound were reported as IC50, the concentration giving 50% response, and Ymax, the maximum response observed with the compound.

The next experiment concerns the target Cyclin E1 (Homo sapiens, UniProt P24864+Q96SW2). The experiment in a line: Cyclin E1 Cellular Degradation Assay (MSD). Also on record: endogenous in cells; host or cells: OVCAR3. The settings on record: for DC50 / Dmax: Cyclin E1 cellular degradation; for Dmax: maximum degradation; for Ratio of GSPT1 DC50/Cyclin E1 DC50: selectivity for degradation of Cyclin E1 over GSPT1. Here is the method:
Culturing cells: On Day 0, OVCAR3 cells were plated at 15,000 cells/well in 40 μL of culture medium (RPMI1640, 20% FBS, 0.01 insulin, 1% Anti/Anti) in a 384 well cell culture plate. Cell cultures were incubated for 24 hours at 37° C. and 5% CO2.
Coating MSD plates: On Day 1, rabbit anti-CCNE1 antibody (Abcam ab33911, 1 μg/mL in DPBS, […]) was dispensed to a Meso Scale Discovery plate (MSD L21XA). The MSD plate was spun briefly to ensure the solution coated the bottom of the well and incubated overnight at 4° C. On Day 2, the plate was washed 3 times with TBS +0.2% TWEEN, blocked for 1 hour with 3% MSD Blocker A (MSD R93AA-1, 30 μL/well), then washed again 3 times with TBS+0.2% TWEEN.
Treating and lysing cells: On Day 1, compounds of interest were dispensed into the cell cultures by acoustic dispensing technology. The cell cultures were then spun at 400 g for 4 minutes to disperse the compounds and incubated at 37° C. and 5% CO2 for 24 hours. After incubation, 40 μL of DPBS was added to the cell cultures to dilute the media. All liquid was gently discarded and immediately replaced with 30 μL of lysis buffer (MSD Tris Lysis buffer (MSD R60TX-2), Halt Protease inhibitor (ThermoFisher 78438), Phosphatase Inhibitor II (Sigma-Aldrich P5726), Phosphatase Inhibitor III (Sigma-Aldrich P0044), 0.02M PMSF (Sigma-Aldrich 7626), 0.1% SDS (VWR E719-100ML)). The plate was then sealed, shaken at 300 rpm at room temperature for 5 minutes, and freeze-thawed for optimum cell lysis.
Collecting data: After thawing, 25 μL of lysate was transferred to a coated MSD plate. The plate was then sealed and shaken at 300 rpm overnight in 4° C. On Day 3, the MSD plate was washed 3 times with TBS+0.2% TWEEN. Mouse anti-CCNE1 antibody (Abcam ab238081, 0.5 μg/mL in 1% MSD Blocker A, 10 μL/well) dispensed to the MSD plate, which was then sealed and shaken at room temperature for 3 hours. After the first antibody incubation, the plate was washed 3 times with TBS+0.2% TWEEN, then goat anti-mouse Sulfo-Tag antibody (MSD R32AC, 1 μg/mL in 1% MSD Blocker A, 10 μL/well) was dispensed to the MSD plate. The plate was sealed again and shaken at room temperature for 1 hour, then washed 3 times with TBS+0.2% TWEEN. After the final wash, 35 μL of 1× Read Buffer (MSD R92TC-1) was added to each well and the data was captured using the MSD plate reader. The reference compound, [2-(2,6-dioxopiperidin-3-yl)-4-methoxy-3-oxo-2,3-dihydro-1H-isoindol-5-yl]methyl N-[4-(3,4-difluorophenoxy)phenyl]carbamate, at […] was used to define […]. Assay results for each compound were reported as DC50, the concentration giving 50% response, and Dmax, the maximum response observed with the compound.

The next experiment has as its target GSPT1 (Homo sapiens, UniProt P15170+Q96SW2). The experiment in a line: GSPT1 Cellular Degradation Assay (DF15-GSPT1-ePL). The settings on record: DF15-GSPT1-ePL cells, 20 hours. More on the design: expressed in transfected cells. The source says: DF15-GSPT1-ePL was used for intracellular GSPT1 protein degradation detection in form of chemiluminescent signal, which was built on a human DF15 cell line (CVCL_Y429) with conditional co-expression of chimeric GSPT1 (target) and ePL/donor (enhanced ProLabel® by DiscoverX for enzyme fragment complementation with donor-acceptor pairing). The cells used the culture medium in two arrangements for assay and maintenance. During assay, it used Core-RPMI 1640 medium with 10% Fetal Bovine Serum (Heat Inactivated) and 1× Penicillin/Streptomycin; and during passage maintenance, used added ingredients: 0.1 mM NEAA, 1 mM sodium pyruvate, 25 mM Hepes, 0.1% Pluronic F-68, 1× Glutamin, 4 μg/mL Blasticidin (selection agent). Detection was performed on a 1536 well tissue culture plate (Corning #3727) with cells seeded in 3.5 μL core-RPMI 1640 at density of 0.25 million/mL after the pre-titrated test compounds in DMSO on ECHO plate were dispensed onto the assay plate by use of ECHO (liquid handing system via acoustic energy from Labcyte). Assay incubation lasted 20 hours in 37° C. incubator with 5% CO2; then followed by 30 minutes of plate-cooling at room temperature; then detection-reagent-mix was added in 3.5 μL/well with pre-defined proportion of enzyme acceptor, substrate, and lysis buffer. Plate signal reading for luminescence on an EnVision plate reader (PerkinElmer) was conducted after 60 minutes of former step at room temperature. Raw data was collected and processed with Dotmatics (data analyzer) for test compound's potency values. The reference compound, 3-[5-(3,6-dimethoxyisoquinolin-1-yl)-1-oxo-2,3-dihydro-1H-isoindol-2-yl]piperidine-2,6-dione, at […] was used to define 75% response. Assay results for each compound were reported as DC50, the concentration giving 50% response, and Dmax, the maximum response observed with the compound.

This is an account of results in US20250084056A1, “SUBSTITUTED OXOISOINDOLINYL PIPERIDINE-2,6-DIONE COMPOUNDS” (BRISTOL-MYERS SQUIBB COMPANY, priority 2023, published 2025).

What is called IC50 is the point on the concentration scale where inhibition reaches its midpoint. Lower therefore signals inhibition by little substance. The term DC50 denotes the concentration giving 50% degradation. Higher therefore signals a less potent degrader. Broadly, the Dmax is the greatest extent of degradation seen.

Sequence of GSPT1 (P15170 whole entry, the tested form may be a part): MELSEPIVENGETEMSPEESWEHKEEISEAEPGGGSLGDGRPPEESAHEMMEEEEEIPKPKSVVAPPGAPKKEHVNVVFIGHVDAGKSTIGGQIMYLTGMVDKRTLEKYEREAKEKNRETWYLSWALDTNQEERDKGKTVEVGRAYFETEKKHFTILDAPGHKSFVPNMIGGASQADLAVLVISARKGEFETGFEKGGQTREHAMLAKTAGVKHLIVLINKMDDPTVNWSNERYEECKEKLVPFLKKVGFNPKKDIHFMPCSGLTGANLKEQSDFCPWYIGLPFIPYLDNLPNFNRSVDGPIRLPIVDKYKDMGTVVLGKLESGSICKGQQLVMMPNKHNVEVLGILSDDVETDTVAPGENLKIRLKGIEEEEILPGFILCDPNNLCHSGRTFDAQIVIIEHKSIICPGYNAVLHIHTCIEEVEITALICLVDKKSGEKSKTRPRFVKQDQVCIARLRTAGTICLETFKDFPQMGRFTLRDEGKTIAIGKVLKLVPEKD
Sequence of GSPT1 (Q96SW2 whole entry, the tested form may be a part): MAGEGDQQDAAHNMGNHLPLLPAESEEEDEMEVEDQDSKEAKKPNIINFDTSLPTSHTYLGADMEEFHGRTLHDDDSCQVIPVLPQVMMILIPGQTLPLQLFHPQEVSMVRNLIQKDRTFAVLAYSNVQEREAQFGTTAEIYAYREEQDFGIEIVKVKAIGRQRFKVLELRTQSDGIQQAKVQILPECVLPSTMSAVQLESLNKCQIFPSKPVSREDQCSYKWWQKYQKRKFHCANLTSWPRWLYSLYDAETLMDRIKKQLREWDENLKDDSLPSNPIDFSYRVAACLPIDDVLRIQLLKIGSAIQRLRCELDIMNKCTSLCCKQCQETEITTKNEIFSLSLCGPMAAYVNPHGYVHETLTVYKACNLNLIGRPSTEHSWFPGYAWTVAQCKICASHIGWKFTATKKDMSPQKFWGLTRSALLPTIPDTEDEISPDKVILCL
Sequence of GSPT1 (Q16531 whole entry partner, the tested form may be a part): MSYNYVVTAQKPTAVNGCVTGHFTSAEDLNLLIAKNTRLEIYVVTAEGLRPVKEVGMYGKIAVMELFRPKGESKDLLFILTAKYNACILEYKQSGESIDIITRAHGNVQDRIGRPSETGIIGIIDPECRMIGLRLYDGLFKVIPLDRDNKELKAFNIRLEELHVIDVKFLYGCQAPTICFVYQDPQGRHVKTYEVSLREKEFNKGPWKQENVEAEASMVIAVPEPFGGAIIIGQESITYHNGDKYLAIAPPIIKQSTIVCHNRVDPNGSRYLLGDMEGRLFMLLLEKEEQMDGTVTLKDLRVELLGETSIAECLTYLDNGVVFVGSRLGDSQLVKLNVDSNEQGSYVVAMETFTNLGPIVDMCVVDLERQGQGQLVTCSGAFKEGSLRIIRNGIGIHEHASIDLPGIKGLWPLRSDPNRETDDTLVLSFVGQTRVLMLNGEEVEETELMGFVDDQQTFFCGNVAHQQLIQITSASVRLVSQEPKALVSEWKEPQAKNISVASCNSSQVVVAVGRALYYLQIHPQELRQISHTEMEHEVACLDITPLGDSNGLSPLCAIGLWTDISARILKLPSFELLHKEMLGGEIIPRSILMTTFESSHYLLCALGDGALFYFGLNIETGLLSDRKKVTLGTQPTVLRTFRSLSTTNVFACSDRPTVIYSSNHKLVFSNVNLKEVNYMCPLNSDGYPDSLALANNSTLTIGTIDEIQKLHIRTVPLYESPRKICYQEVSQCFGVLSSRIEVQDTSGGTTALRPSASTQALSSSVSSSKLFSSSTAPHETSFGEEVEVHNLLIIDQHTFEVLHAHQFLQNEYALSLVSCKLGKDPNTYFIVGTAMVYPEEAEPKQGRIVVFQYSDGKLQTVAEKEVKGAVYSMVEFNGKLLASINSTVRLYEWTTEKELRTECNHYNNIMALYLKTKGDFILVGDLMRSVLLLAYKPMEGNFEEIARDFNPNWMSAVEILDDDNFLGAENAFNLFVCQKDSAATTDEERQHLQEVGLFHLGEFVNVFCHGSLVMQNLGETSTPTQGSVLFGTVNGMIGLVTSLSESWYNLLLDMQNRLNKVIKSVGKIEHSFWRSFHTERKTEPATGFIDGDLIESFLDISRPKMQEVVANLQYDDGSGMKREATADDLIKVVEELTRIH
Sequence of Cyclin E1 (P24864 whole entry): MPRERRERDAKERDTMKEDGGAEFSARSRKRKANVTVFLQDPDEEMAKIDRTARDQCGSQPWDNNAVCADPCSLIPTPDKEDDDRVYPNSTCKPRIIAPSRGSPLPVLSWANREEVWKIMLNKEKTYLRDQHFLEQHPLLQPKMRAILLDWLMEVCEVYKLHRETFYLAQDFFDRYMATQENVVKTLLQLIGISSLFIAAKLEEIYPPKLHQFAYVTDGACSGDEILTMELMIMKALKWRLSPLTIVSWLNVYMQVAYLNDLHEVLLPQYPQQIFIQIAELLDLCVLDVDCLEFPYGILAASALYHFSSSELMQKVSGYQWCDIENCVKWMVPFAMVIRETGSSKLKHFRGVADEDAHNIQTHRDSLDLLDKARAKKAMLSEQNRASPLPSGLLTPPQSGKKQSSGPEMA
Sequence of Cyclin E1 (Q96SW2 whole entry): as the sequence (Q96SW2 whole entry, the tested form may be a part) above
Sequence of Cyclin E1 (Q16531 whole entry partner): as the sequence (Q16531 whole entry partner, the tested form may be a part) above

Take `O=C1CCC(N2Cc3ccc(COC(=O)Nc4ccc(Oc5ccc(F)cc5F)cc4)c(OC4CCOCC4)c3C2=O)C(=O)N1` (stereo not drawn) [Example 139, [2-(2,6-dioxopiperidin-3-yl)-4-(oxan-4-yloxy)-3-oxo-2,3-dihydro-1H-isoindol-5-yl]methyl N-[4-(2,4-difluorophenoxy)phenyl]carbamate]: in the experiment on Phospho-Rb (Ser807/811), the midpoint of inhibition, the IC50, lay at 0.027 µM and the Emax came to 170%. Also, at Cyclin E1, the DC50 was 0.067 µM, the Dmax is 105% and the “Ratio of GSPT1 DC50/Cyclin E1 DC50” value was over 210. Further, at GSPT1, the DC50 was over 14 µM and the Dmax worked out at 8%.
On to `CC(C)Oc1c(COC(=O)Nc2ccc(Oc3ccccc3Cl)cc2)ccc2c1C(=O)N(C1CCC(=O)NC1=O)C2` (stereo not drawn) [Example 122, [2-(2,6-dioxopiperidin-3-yl)-3-oxo-4-(propan-2-yloxy)-2,3-dihydro-1H-isoindol-5-yl]methyl N-[4-(2-chlorophenoxy)phenyl]carbamate], for which, in the experiment on Phospho-Rb (Ser807/811), it took 0.054 µM to reach half-maximal inhibition (IC50) and the Emax turned out to be 122%. At Cyclin E1, the 50% degradation concentration (DC50) was 0.061 µM, the Dmax came out at 106% and the “Ratio of GSPT1 DC50/Cyclin E1 DC50” value is reported as over 230. Further, on GSPT1, the DC50 was over 14 µM and the Dmax stood at 16%.
Turning to `COc1c(COC(=O)Nc2ccc(Oc3cc(F)c(F)cc3F)cc2F)ccc2c1C(=O)N(C1CCC(=O)NC1=O)C2` (stereo not drawn) [Example 43, [2-(2,6-dioxopiperidin-3-yl)-4-methoxy-3-oxo-2,3-dihydro-1H-isoindol-5-yl]methyl N-[2-fluoro-4-(2,4,5-trifluorophenoxy)phenyl]carbamate], in the experiment on Phospho-Rb (Ser807/811), 0.131 µM corresponded to half-maximal inhibition (IC50) and the Emax amounted to 121%. Moreover, at Cyclin E1, the DC50 was 0.165 µM, the Dmax was 111% and the “Ratio of GSPT1 DC50/Cyclin E1 DC50” value is listed as over 85. Besides, at GSPT1, the DC50 is over 14 µM and the Dmax worked out at 33%.
On to `CN(C)C(=O)COc1c(COC(=O)Nc2ccc(Oc3ccc(F)c(F)c3)cc2)ccc2c1C(=O)N(C1CCC(=O)NC1=O)C2` (stereo not drawn) [Example 175, {4-[(dimethylcarbamoyl)methoxy]-2-(2,6-dioxopiperidin-3-yl)-3-oxo-2,3-dihydro-1H-isoindol-5-yl}methyl N-[4-(3,4-difluorophenoxy)phenyl]carbamate], for which, in the experiment on Phospho-Rb (Ser807/811), the concentration for half-maximal inhibition (IC50) was found to be 0.03 µM and the Emax came to 128%. On Cyclin E1, half-maximal degradation (DC50) was put at 0.045 µM, the Dmax came out at 110% and the “Ratio of GSPT1 DC50/Cyclin E1 DC50” value is reported as over 308. Moreover, on GSPT1, the 50% degradation concentration (DC50) is over 14 µM and the Dmax stood at 11%.
For `O=C1CCC(N2Cc3ccc(COC(=O)Nc4ccc(Oc5cccc(F)c5)cc4)c(Oc4ccccc4)c3C2=O)C(=O)N1` (stereo not drawn) [Example 64, [2-(2,6-dioxopiperidin-3-yl)-3-oxo-4-phenoxy-2,3-dihydro-1H-isoindol-5-yl]methyl N-[4-(3-fluorophenoxy)phenyl]carbamate], in the experiment on Phospho-Rb (Ser807/811), inhibition was half-maximal at 0.083 µM (IC50) and the Emax came out at 111%. Moreover, at Cyclin E1, half-maximal degradation (DC50) was put at 0.133 µM, the Dmax worked out at 109% and the “Ratio of GSPT1 DC50/Cyclin E1 DC50” value is over 105. For the same compound, on GSPT1, the 50% degradation concentration (DC50) is over 14 µM and the Dmax came out at 22%.
In the case of `COc1c(COC(=O)Nc2ccc(Oc3cc(F)cc(F)c3)cc2)ccc2c1C(=O)N(C1CCC(=O)NC1=O)C2` (stereo not drawn) [Example 13, [2-(2,6-dioxopiperidin-3-yl)-4-methoxy-3-oxo-2,3-dihydro-1H-isoindol-5-yl]methyl N-[4-(3,5-difluorophenoxy)phenyl]carbamate], in the experiment with Phospho-Rb (Ser807/811), the half-inhibitory concentration (IC50) amounted to 0.278 µM and the Emax amounted to 97%. Besides, on Cyclin E1, the half-maximal degradation concentration (DC50) was determined as 0.055 µM, the Dmax was determined as 113% and the “Ratio of GSPT1 DC50/Cyclin E1 DC50” value is on record as over 254. Also, on GSPT1, the DC50 is over 14 µM and the Dmax turned out to be 7%.
